According to patent publication US10730870B2, “Compounds and methods for the enhanced degradation of targeted proteins” (Arvinas, Inc., priority 2015, dated 2020):

Biological target: VHL (Homo sapiens (Human), UniProt P40337)
Assay: VHL fluorescence polarization (FP) competition assay
Assay type: binding

Row | SMILES | IC50 (1% in DMSO) | IC50 (10% in DMSO) | VHL FP Assay IC50 (1% in DMSO) | IC50 (0.25% in DMSO) | VHL FP Assay IC50 (10% in DMSO)
1 | CC(=O)N[C@H](C(=O)N1C[C@H](O)C[C@H]1C(=O)NCc1ccc(-c2scnc2C)cc1)C(C)C [Example 69, (2S,4R)-1-((S)-2-acetamido-3-methylbutanoyl)-4-hydroxy-N-(4-(4-methylthiazol-5-yl)benzyl)pyrrolidine-2-carboxamide] | 1.43 µM | 4.28 µM | – | – | –
2 | COC1=CC(=O)N([C@H](C(=O)N2C[C@H](O)C[C@H]2C(=O)NCc2ccc(-c3scnc3C)cc2)C(C)C)C1 [Example 111, (2S,4R)-4-hydroxy-1-((S)-2-(4-methoxy-2-oxo-2,5-dihydro-1H-pyrrol-1-yl)-3-methylbutanoyl)-N-(4-(4-methylthiazol-5-yl)benzyl)pyrrolidine-2-carboxamide] | 0.859 µM | – | – | – | –
3 | CSC[C@H](NC(=O)CCC(C)C)C(=O)N1C[C@H](O)C[C@H]1C(=O)NCc1ccc(-c2scnc2C)cc1 [Example 22, (2S,4R)-4-hydroxy-1-((R)-2-(4-methylpentanamido)-3-(methylthio)propanoyl)-N-(4-(4-methylthiazol-5-yl)benzyl)pyrrolidine-2-carboxamide] | 6.25 µM | 8.29 µM | – | – | –
4 | CC(=O)NCC(=O)N1C[C@H](O)C[C@H]1C(=O)NCc1ccc(-c2scnc2C)cc1 [Example 86, (2S,4R)-1-(2-acetamidoacetyl)-4-hydroxy-N-(4-(4-methylthiazol-5-yl)benzyl)pyrrolidine-2-carboxamide] | 151 µM | 225 µM | – | – | –
5 | Cc1ncsc1-c1ccc(CNC(=O)[C@@H]2C[C@@H](O)CN2C(=O)[C@@H](NC(=O)C(C)C)C(C)(C)C)cc1 [Example 27, (2S,4R)-4-hydroxy-1-((S)-2-isobutyramido-3,3-dimethylbutanoyl)-N-(4-(4-methylthiazol-5-yl)benzyl)pyrrolidine-2-carboxamide] | 3.04 µM | 8.31 µM | – | ~1.57 µM | –
6 | COc1cccc(C(=O)N2C[C@H](O)CC2(C)C(=O)NCc2ccc(-c3scnc3C)cc2)c1 (stereo partly drawn) [Example 66, (4R)-4-hydroxy-1-(3-methoxybenzoyl)-2-methyl-N-(4-(4-methylthiazol-5-yl)benzyl)pyrrolidine-2-carboxamide] | – | – | Not Active | – | Not Active
7 | CC(C)[C@@H](C(=O)N1C[C@H](O)C[C@H]1C(=O)NCc1ccc(C2CCOCC2)cc1)N1Cc2ccccc2C1=O [Example 118, (2S,4R)-4-hydroxy-1-((S)-3-methyl-2-(1-oxoisoindolin-2-yl)butanoyl)-N-(4-(tetrahydro-2H-pyran-4-yl)benzyl)pyrrolidine-2-carboxamide] | 330 µM | – | – | – | –
8 | Cc1ncsc1-c1ccc(CNC(=O)[C@@H]2C[C@@H](O)CN2C(=O)[C@@H](NC(=O)CC(C)C)C(C)(C)C)cc1 [Example 18, (2S,4R)-1-((S)-3,3-dimethyl-2-(3-methylbutanamido)butanoyl)-4-hydroxy-N-(4-(4-methylthiazol-5-yl)benzyl)pyrrolidine-2-carboxamide] | 0.855 µM | 2.72 µM | – | 5.5 µM | –
9 | Cc1ncsc1-c1ccc(CNC(=O)[C@@H]2C[C@@H](O)CN2C(=O)[C@@H](NC(=O)c2ccc(C#N)cc2)C(C)(C)C)cc1 [Example 43, (2S,4R)-1-((S)-2-(4-cyanobenzamido)-3,3-dimethylbutanoyl)-4-hydroxy-N-(4-(4-methylthiazol-5-yl)benzyl)pyrrolidine-2-carboxamide] | 0.906 µM | 1.2 µM | – | – | –
10 | Cc1ncsc1-c1ccc(CNC(=O)[C@@H]2C[C@@H](O)CN2C(=O)[C@@H](NC(=O)C2CCCCC2)C(C)(C)C)cc1 [Example 36, (2S,4R)-1-((S)-2-(cyclohexanecarboxamido)-3,3-dimethylbutanoyl)-4-hydroxy-N-(4-(4-methylthiazol-5-yl)benzyl)pyrrolidine-2-carboxamide] | 3.55 µM | 5.48 µM | – | 6.54 µM | –
11 | CC(=O)NC(C(=O)N1C[C@H](O)C[C@H]1C(=O)NCc1ccc(-c2scnc2C)cc1)C(F)(F)F (stereo partly drawn) [Example 90, (2S,4R)-1-(2-acetamido-3,3,3-trifluoropropanoyl)-4-hydroxy-N-(4-(4-methylthiazol-5-yl)benzyl)pyrrolidine-2-carboxamide] | 45.2 µM | 47.9 µM | – | – | –
12 | Cc1ncsc1-c1ccc(CNC(=O)[C@@H]2C[C@@H](O)CN2C(=O)[C@H](CS)NC(=O)CCC(C)C)cc1 [Example 59, (2S,4R)-4-hydroxy-1-((R)-3-mercapto-2-(4-methylpentanamido)propanoyl)-N-(4-(4-methylthiazol-5-yl)benzyl)pyrrolidine-2-carboxamide] | 1.42 µM | 3.69 µM | – | – | –
13 | CC(C)[C@@H](C(=O)N1C[C@H](O)C[C@H]1C(=O)NCc1ccc(C2CCC2)cc1)N1Cc2ccccc2C1=O [Example 114, (2S,4R)—N-(4-cyclobutylbenzyl)-4-hydroxy-1-((S)-3-methyl-2-(1-oxoisoindolin-2-yl)butanoyl)pyrrolidine-2-carboxamide] | 47.3 µM | – | – | – | –
14 | Cc1ncsc1-c1ccc(CNC(=O)[C@@H]2C[C@@H](O)CN2C(=O)[C@@H](NC(=O)[C@H](C)N)C(C)(C)C)cc1 [Example 123, (2S,4R)-1-((S)-2-((S)-2-aminopropanamido)-3,3-dimethylbutanoyl)-4-hydroxy-N-(4-(4-methylthiazol-5-yl)benzyl)pyrrolidine-2-carboxamide] | 4.23 µM | – | – | – | –
15 | Cc1ncsc1-c1ccc(CNC(=O)[C@@H]2C[C@@H](O)CN2C(=O)[C@@H](NC(=O)CCC(C)C)C2CCCCC2)cc1 [Example 56, (2S,4R)-1-((S)-2-cyclohexyl-2-(4-methylpentanamido)acetyl)-4-hydroxy-N-(4-(4-methylthiazol-5-yl)benzyl)pyrrolidine-2-carboxamide] | 0.878 µM | 1.48 µM | – | – | –

Results, then the compound that gave them:

Row | IC50 (1% in DMSO) | IC50 (10% in DMSO) | VHL FP Assay IC50 (1% in DMSO) | IC50 (0.25% in DMSO) | VHL FP Assay IC50 (10% in DMSO) | SMILES
16 | 0.631 µM | 0.578 µM | – | – | – | Cc1ncsc1-c1ccc(CNC(=O)[C@@H]2C[C@@H](O)CN2C(=O)[C@@H](N2Cc3ccccc3C2=O)C(C)(C)C)cc1 [Example 65, (2S,4R)-1-((S)-3,3-dimethyl-2-(1-oxoisoindolin-2-yl)butanoyl)-4-hydroxy-N-(4-(4-methylthiazol-5-yl)benzyl)pyrrolidine-2-carboxamide]
17 | 32.6 µM | 26.2 µM | – | – | – | Cc1ncsc1-c1ccc(CNC(=O)[C@@H]2C[C@@H](O)CN2C(=O)[C@H](c2cccs2)N2Cc3ccccc3C2=O)cc1 [Example 58, (2S,4R)-4-hydroxy-N-(4-(4-methylthiazol-5-yl)benzyl)-1-((R)-2-(1-oxoisoindolin-2-yl)-2-(thiophen-2-yl)acetyl)pyrrolidine-2-carboxamide]
18 | – | – | Not Active | – | – | Cc1ncsc1-c1ccc(CNC(=O)C2(C)C[C@@H](O)CN2C(=O)[C@H](C(C)C)N2Cc3ccccc3C2=O)cc1 (some centres unmarked) [Example 131]
19 | – | – | Not active | – | – | Cc1ncsc1-c1ccc(CNC(=O)[C@@H]2C[C@@](O)(CO)CN2C(=O)[C@H](C(C)C)N2Cc3ccccc3C2=O)cc1 [Example 144, (2S,4S)-4-hydroxy-4-(hydroxymethyl)-1-((S)-3-methyl-2-(1-oxoisoindolin-2-yl)butanoyl)-N-(4-(4-methylthiazol-5-yl)benzyl)pyrrolidine-2-carboxamide]
20 | 0.45 µM | 0.264 µM | – | – | – | Cc1ncsc1-c1ccc(CNC(=O)[C@@H]2C[C@@H](O)CN2C(=O)[C@H](C(C)C)N2Cc3ccc(Cl)cc3C2=O)cc1 [Example 74, (2S,4R)-1-((S)-2-(6-chloro-1-oxoisoindolin-2-yl)-3-methylbutanoyl)-4-hydroxy-N-(4-(4-methylthiazol-5-yl)benzyl)pyrrolidine-2-carboxamide]
21 | 115 µM | 461 µM | – | – | – | Cc1ncsc1-c1ccc(CNC(=O)[C@@H]2C[C@@H](O)CN2C(=O)C2(N3Cc4ccccc4C3=O)CCC2)cc1 [Example 55, (2S,4R)-4-hydroxy-N-(4-(4-methylthiazol-5-yl)benzyl)-1-(1-(1-oxoisoindolin-2-yl)cyclobutanecarbonyl)pyrrolidine-2-carboxamide]
22 | 1.64 µM | 1.58 µM | – | – | – | Cc1ncsc1-c1ccc(CNC(=O)[C@@H]2C[C@@H](O)CN2C(=O)[C@H](C(C)C)N2Cc3ccccc3C2=O)c(F)c1 [Example 82, (2S,4R)—N-(2-fluoro-4-(4-methylthiazol-5-yl)benzyl)-4-hydroxy-1-((S)-3-methyl-2-(1-oxoisoindolin-2-yl)butanoyl)pyrrolidine-2-carboxamide]
23 | 0.509 µM | 1.3 µM | – | 2.05 µM | – | Cc1ncsc1-c1ccc(CNC(=O)[C@@H]2C[C@@H](O)CN2C(=O)[C@H](C(C)C)N2Cc3c(C#N)cccc3C2=O)cc1 [Example 35, (2S,4R)-1-((S)-2-(4-cyano-1-oxoisoindolin-2-yl)-3-methylbutanoyl)-4-hydroxy-N-(4-(4-methylthiazol-5-yl)benzyl)pyrrolidine-2-carboxamide]
24 | 0.66 µM | 1.18 µM | – | 2.12 µM | – | Cc1ncsc1-c1ccc(CNC(=O)[C@@H]2C[C@@H](O)CN2C(=O)[C@H](C(C)C)N2Cc3cc(C#N)ccc3C2=O)cc1 [Example 34, (2S,4R)-1-((S)-2-(5-cyano-1-oxoisoindolin-2-yl)-3-methylbutanoyl)-4-hydroxy-N-(4-(4-methylthiazol-5-yl)benzyl)pyrrolidine-2-carboxamide]
25 | 1.64 µM | – | – | – | – | Cc1ncoc1-c1ccc(CNC(=O)[C@@H]2C[C@@H](O)CN2C(=O)[C@H](C(C)C)N2Cc3ccccc3C2=O)cc1 [Example 133, (2S,4R)-4-hydroxy-1-((S)-3-methyl-2-(1-oxoisoindolin-2-yl)butanoyl)-N-(4-(4-methyloxazol-5-yl)benzyl)pyrrolidine-2-carboxamide]
26 | – | 235 µM | – | – | – | Cc1ncsc1-c1ccc(CNC(=O)[C@@H]2C[C@@H](O)CN2C(=O)C2(N3Cc4ccccc4C3=O)CCCC2)cc1 [Example 50, (2S,4R)-4-hydroxy-N-(4-(4-methylthiazol-5-yl)benzyl)-1-(1-(1-oxoisoindolin-2-yl)cyclopentanecarbonyl)pyrrolidine-2-carboxamide]
27 | – | – | Not Active | – | – | Cc1ncsc1-c1ccc(CNC(=O)[C@@H]2C[C@@H](S)CN2C(=O)[C@H](C(C)C)N2Cc3ccccc3C2=O)cc1 [Example 119, (2S,4R)-4-mercapto-1-((S)-3-methyl-2-(1-oxoisoindolin-2-yl)butanoyl)-N-(4-(4-methylthiazol-5-yl)benzyl)pyrrolidine-2-carboxamide]
